Earlier results on one compound are cited in patent US20100093758A1, “PYRIDINE SULFONAMIDE MODULATORS OF ENDOTHELIN-A RECEPTOR” (AUSPEX PHARMACEUTICALS, INC., priority 2008, published 2010).

Test in data set [1]: not given
The source holds these as a separate data set.

Each structure is given as a SMILES string.

Regarding `COc1ccccc1Oc1c(NS(=O)(=O)c2ccc(C)cn2)nc(-c2ccncc2)nc1OC` [Avosentan, 5-Methyl-pyridine-2-sulfonic acid [6-methoxy-5-(2-methoxy-phenoxy)-2-pyridin-4-yl-pyrimidin-4-yl]-amide], for the setting “doses up to 100 mg”, the “dose dependence of Cmax and AUC” value is listed as “increase linearly with doses up to 100 mg”. Also, for the setting “in vivo”, the “time at which maximum plasma levels are reached” value was no more than 4.5 h and the urinary excretion entry was “below 0.1 % of any dose”. Further, under “with food”, the “food effect on exposure and Cmax” value was “does not affect overall exposure but increases Cmax”. The fluid retention entry in data set [1] (at high concentrations) is “higher-than-expected rate of fluid retention”. Besides, in data set [1] (typical for vasodilating agents), the adverse events entry is “headache, nausea and vomiting, dizziness, and postural hypotension”.
